{"source": "paper PMC5882637", "about": "“Ethanol potentiates the genotoxicity of the food-derived mammary carcinogen PhIP in human estrogen receptor-positive mammary cells: mechanistic support for lifestyle factors (cooked red meat and ethanol) associated with mammary cancer” (Archives of Toxicology, 2018)", "key": {"[1]": {"test_system": "MCF-7 cells", "assay": "Cytotoxicity (cell counting, TrypanBlue exclusion), MCF-7", "experimental": "(§1) Cells were cultured routinely in 75-cm^2 flasks in a humidified incubator at 37 °C, 5% CO2.\n(§2) Briefly, cells were seeded at a density of 5 × 10^4 cells per well in 24-well plate. Cells were treated with PhIP or ethanol as detailed previously. Following treatment with chemicals and harvesting (48 h), cells were trypsinised, the cell concentration adjusted to 2 × 10^5 and re-suspended in serum-free R0 (serum-free media) with 2% pluronic acid medium (GIBCO, Life technologies) and cytotoxicity was determined by counting cells in a haemocytometer with TrypanBlue exclusion (GIBCO, Life technologies). For the MN assay, cells were spread on a microscope slide using a cytospin. Cells at a density of 2 × 10^4 cells per slide were fixed with 100% methanol and stained for 60 s with acridine orange (0.1 mg ml^−1 dissolved in PBS, Sigma-Aldrich). Frequency of MN was scored in 2000 cells per sample and three biological replicates were performed per treatment."}, "[2]": {"test_system": "MCF-7 cells", "assay": "Micronucleus (MN) assay, MCF-7", "experimental": "as §1, §2"}, "[3]": {"test_system": "intracellular ROS in MCF-7 cells", "design": "method as in Li et al. [2013]; Martinez-Outschoorn et al. [2010]", "settings": "NAC 10 mM, ref Li et al. [2013], Martinez-Outschoorn et al. [2010]; cited from earlier work"}, "[4]": {"test_system": "intracellular ROS in MCF-7 cells", "assay": "ROS assay (carboxy-DCF-DA), MCF-7", "type": "cell-based, human", "settings": "for intracellular ROS levels: ethanol 50 mM or PhIP 100 µM alone, Fig. 6c", "experimental": "STAT3 inhibitor was dissolved in DMSO.\nProduction of reactive oxygen species (ROS) was measured using 2′,7′–dichlorofluorescein diacetate method. Carboxy-2′,7′-dichlorofluorescein diacetate (carboxy-DCF-DA) is taken up by viable cells and cleaved by endogenous esterases to the nonfluorescent derivative, reduced carboxy-dichlorofluorescein (carboxy-DCFH). This product is retained in the cytosol where it can be oxidized by intracellular ROS to the highly fluorescent product, oxidised carboxy-dichlorofluorescein (carboxy-DCF). The intensity of fluorescence is proportional to intracellular ROS levels. MCF-7 cells (2 × 10^4/well) were seeded into 24-well plates in 1% FBS and allowed to attach overnight. Cells were treated with PhIP for 24 h and then treated with Carboxy-DCFDA (20 µL, 30 µM) in media containing 1% FBS (1 ml) and incubated for 30 min at 37 °C, washed with PBS and new media (1% FBS) was added. Fluorescent measurements (excitation at 485 nm and emission at 520 nm) were then taken from 10 min to 24 h using a fluorescence plate reader (BMG POLARstar Galaxy Labtech, Ortenberg, Germany). The concentration of DMSO (0.2%) was identical in all treatments and had no effect on ROS production at this concentration."}, "[5]": {"test_system": "MDA-MB-231 cells", "assay": "Cytotoxicity (cell counting, TrypanBlue exclusion), MDA-MB-231", "experimental": "as §1, §2"}, "[6]": {"test_system": "CYP1A1", "assay": "RT-qPCR CYP1A1 mRNA, MDA-MB-231", "type": "cell-based, human", "settings": "data not shown", "experimental": "as §1\n(§3) Following treatment, cells were lysed using TRIZOL reagent and chloroform (0.2 ml) was added in each sample and centrifuged 12,000xg (10 min 2–8 °C). The upper aqueous phase was transferred to a fresh tube and 5 µg of RNase-free glycogen (as carrier to aqueous phase) and 0.5 ml of isopropyl alcohol was added to precipitate RNA and incubated (37 °C, 10 min). Following incubation, lysates were centrifuged at 12,000xg (10 min 2–8 °C). The gel-like pellet was washed with ethanol and re-dissolved in RNase-free water with heating (55–60 °C). Extracted RNA was quantified by UV spectroscopy (UV–VIS Nano-spectrophotometer, Implen, Essex, UK) and purity was assessed from 260/280 nm and 260/230 nm ratios. Reverse transcription (RT) of extracted RNA (100–500 ng) was completed according to manufacturer’s protocol (Invitrogen) and qPCR was performed using predesigned Taqman gene expression assays and FAST PCR master mix (Taqman, Applied Biosystems, Life technologies) using a StepOnePlus fast real-time PCR system (Applied Biosystems, Life technologies). Target gene expression was normalized to GAPDH and quantified using the delta-Ct method (Livak and Schmittgen [2001])."}, "[7]": {"test_system": "CYP1A2 mRNA expression", "assay": "RT-qPCR CYP1A2 mRNA, MCF-7", "settings": "24 h, E2 1 µM, Fig. 2a", "experimental": "as §1, §3"}, "[8]": {"test_system": "CYP1B1 mRNA expression", "assay": "RT-qPCR CYP1B1 mRNA, MCF-7", "experimental": "as §1, §3"}, "[9]": {"test_system": "CYP2E1 mRNA expression", "assay": "RT-qPCR CYP2E1 mRNA, MDA-MB-231", "type": "cell-based, human", "settings": "PhIP treatment, Fig. 3a", "experimental": "as §1, §3"}, "[10]": {"test_system": "STAT3 mRNA expression", "assay": "qPCR STAT3 mRNA, MCF-7", "type": "cell-based, human", "settings": "24 h PhIP treatment, Fig. 3b", "experimental": "as §1, §3"}, "[11]": {"test_system": "CYP2E1 mRNA expression", "assay": "RT-qPCR CYP2E1 mRNA, MCF-7", "experimental": "as §1\nFor STAT3 inhibition, cells were co-treated for 24 h with PhIP and 25 µM STAT3 inhibitor (STAT3 inhibitor VIII 5, 15 diphenylporphyrin, Millipore, Feltham, UK). STAT3 inhibitor was dissolved in DMSO. For ethanol treatment, media was supplemented with different concentrations of ethanol (10 mM-100 mM, Sigma-Aldrich) and was added to the cells. In some experiments, N-acetyl-cysteine (NAC) (10 mM, Sigma-Aldrich) diluted in phosphate-buffered saline (PBS) was added to incubations.\nas §3"}, "[12]": {"test_system": "CYP1A2 mRNA expression", "assay": "RT-qPCR CYP1A2 mRNA, MDA-MB-231", "settings": "24 h, E2 1 µM, Fig. 2c", "experimental": "as §1, §3"}, "[13]": {"test_system": "CYP1A1", "assay": "RT-qPCR CYP1A1 mRNA, MCF-7", "type": "cell-based, human", "settings": "data not shown", "experimental": "as §1, §3"}, "[14]": {"test_system": "CYP1B1 mRNA expression", "assay": "RT-qPCR CYP1B1 mRNA, MDA-MB-231", "settings": "24 h, E2 1 µM, Fig. 2d", "experimental": "as §1, §3"}, "[15]": {"test_system": "miR378 expression", "assay": "qPCR miR378, MCF-7", "type": "cell-based, human", "settings": "24 h PhIP treatment, Fig. 3b", "experimental": "as §1, §3"}, "[16]": {"test_system": "JAK2 mRNA expression", "assay": "qPCR JAK2 mRNA, MCF-7", "type": "cell-based, human", "settings": "PhIP-treated, Fig. 3b", "experimental": "as §1, §3"}, "[17]": {"test_system": "MDA-MB-231 cells", "assay": "Micronucleus (MN) assay, MDA-MB-231", "experimental": "as §1, §2"}, "[18]": {"settings": "PhIP 100 nM, three independent cultures"}}, "data": [{"smiles": "CC(=O)N[C@@H](CS)C(=O)O", "note": "[NAC, N-acetyl-cysteine, reference compound]", "values": [{"measurement": "effect of NAC on cell survival", "setting": "[1]; ethanol 50 mM and PhIP 100 µM with NAC 10 mM, Fig. 7d", "result": "did not affect"}, {"measurement": "effect of NAC on genotoxicity of etoposide", "setting": "[2]; NAC 10 mM, Fig. 7e", "result": "little effect"}, {"measurement": "effect of NAC on genotoxicity of PhIP plus ethanol", "setting": "[2]; NAC 10 mM, p = 0.01, Fig. 7e", "result": "decreased the genotoxicity of PhIP plus ethanol significantly"}, {"measurement": "accumulation of ROS", "setting": "[3]", "result": "abolish"}, {"measurement": "effect of NAC on ethanol-induced ROS production", "setting": "[4]; ethanol 50 mM plus NAC 10 mM, Fig. 7c", "result": "clear decrease"}]}, {"smiles": "Cn1c(N)nc2ncc(-c3ccccc3)cc21", "note": "[PhIP, 2-amino-1-methyl-6-phenylimidazo[4,5-b]pyridine]", "values": [{"measurement": "change in cell survival following treatment", "setting": "[1]; Fig. 1a", "result": "No significant change"}, {"measurement": "Cytotoxicity (percent survival ± SD)", "setting": "[1]; [18]", "result": "86% ± 2.4"}, {"measurement": "Cytotoxicity (percent survival ± SD)", "setting": "[1]; PhIP 1 µM", "result": "85.6% ± 2.4"}, {"measurement": "Cytotoxicity (percent survival ± SD)", "setting": "[1]; PhIP 10 µM", "result": "85.8% ± 2.6"}, {"measurement": "Cytotoxicity (percent survival ± SD)", "setting": "[1]; PhIP 100 µM", "result": "82.7% ± 1.7"}, {"measurement": "change in cell survival following treatment", "setting": "[5]; Fig. 1b", "result": "No significant change"}, {"measurement": "Cytotoxicity (percent survival ± SD)", "setting": "[5]; PhIP 100 nM", "result": "87.2% ± 0.9"}, {"measurement": "Cytotoxicity (percent survival ± SD)", "setting": "[5]; PhIP 1 µM", "result": "88.1% ± 0.9"}, {"measurement": "Cytotoxicity (percent survival ± SD)", "setting": "[5]; PhIP 10 µM", "result": "90.4% ± 4.3"}, {"measurement": "Cytotoxicity (percent survival ± SD)", "setting": "[5]; PhIP 100 µM", "result": "87.7% ± 1.5"}, {"measurement": "CYP1A1 induction", "setting": "[6]", "result": "failed to induce"}, {"measurement": "CYP1A2 mRNA expression vs vehicle control", "setting": "[7]", "result": "can induce"}, {"measurement": "MN frequency (mean ± SD)", "setting": "[2]; [18]", "result": "12.8 ± 5.1", "unit": "MN/1000 cells"}, {"measurement": "MN frequency (mean ± SD)", "setting": "[2]; PhIP 1 µM", "result": "22.3 ± 2.6", "unit": "MN/1000 cells"}, {"measurement": "MN frequency (mean ± SD)", "setting": "[2]; PhIP 10 µM", "result": "29.2 ± 3.4", "unit": "MN/1000 cells"}, {"measurement": "MN frequency (mean ± SD)", "setting": "[2]; PhIP 100 µM", "result": "49 ± 3.5", "unit": "MN/1000 cells"}, {"measurement": "CYP1B1 mRNA expression vs vehicle control", "setting": "[8]; MCF-7, 24 h, E2 1 µM, Fig. 2b", "result": "can induce"}, {"measurement": "CYP1B1 induction in MCF-7 compared to MDA-MB-231 cells", "setting": "[8]; PhIP, Fig. 2", "result": "higher"}, {"measurement": "CYP2E1 mRNA expression", "setting": "[9]", "result": "but not in MDA-MB-231 cells"}, {"measurement": "STAT3 mRNA expression", "setting": "[10]", "result": "dose-dependent upregulation"}, {"measurement": "CYP2E1 mRNA expression", "setting": "[11]; PhIP treatment, Fig. 3a", "result": "induced CYP2E1 mRNA expression in a dose-dependent manner"}, {"measurement": "CYP1A2 mRNA expression vs vehicle control", "setting": "[12]", "result": "can induce"}, {"measurement": "ROS levels", "setting": "[4]; PhIP 24 h, pronounced over the first 60 min, Fig. 5a", "result": "dose-dependent increase"}, {"measurement": "intracellular ROS levels", "setting": "[4]", "result": "Elevated"}, {"measurement": "CYP1A1 induction", "setting": "[13]", "result": "failed to induce"}, {"measurement": "CYP1B1 mRNA expression vs vehicle control", "setting": "[14]", "result": "can induce"}, {"measurement": "miR378 expression", "setting": "[15]", "result": "no change"}, {"measurement": "JAK2 mRNA expression", "setting": "[16]", "result": "dose-dependent increase"}, {"measurement": "MN frequency (mean ± SD)", "setting": "[17]; PhIP 100 nM", "result": "3.2 ± 2.5", "unit": "MN/1000 cells"}, {"measurement": "MN frequency (mean ± SD)", "setting": "[17]; PhIP 1 µM", "result": "4.7 ± 1.8", "unit": "MN/1000 cells"}, {"measurement": "MN frequency (mean ± SD)", "setting": "[17]; PhIP 10 µM", "result": "9 ± 0.9", "unit": "MN/1000 cells"}, {"measurement": "MN frequency (mean ± SD)", "setting": "[17]; PhIP 100 µM", "result": "13.7 ± 1.3", "unit": "MN/1000 cells"}]}, {"smiles": "C1=Cc2nc1cc1ccc([nH]1)c(-c1ccccc1)c1nc(cc3ccc([nH]3)c2-c2ccccc2)C=C1", "note": "[STAT3 inhibitor, 5, 15 diphenylporphyrin, reference compound]", "values": [{"measurement": "effect of STAT3 inhibitor on CYP2E1 mRNA upregulation by PhIP", "setting": "[11]; inhibitor 25 µM co-treated with PhIP 24 h, Fig. 4a", "result": "completely abolished"}, {"measurement": "effect of STAT3 inhibitor on H2O2-induced ROS", "setting": "[4]; Fig. 5b", "result": "failed to attenuate"}, {"measurement": "effect of STAT3 inhibitor on ROS production by PhIP", "setting": "[4]; PhIP 100 µM 24 h, inhibitor 25 µM, Fig. 5b", "result": "significantly reduced"}]}, {"smiles": "CCO", "note": "[ethanol]", "values": [{"measurement": "effect of addition of ethanol on genotoxicity of etoposide", "setting": "[2]; Fig. 7b", "result": "No change"}, {"measurement": "MN induction", "setting": "[2]; ethanol 50 mM, 24 h, Fig. 7b", "result": "did not significantly induce"}, {"measurement": "ethanol concentration at which CYP2E1 increase was significant", "setting": "[11]; Fig. 6a", "result": "50 to 100", "unit": "mM"}, {"measurement": "CYP2E1 expression", "setting": "[11]; ethanol 10 to 100 mM, Fig. 6a", "result": "dose-dependent increase"}, {"measurement": "intracellular ROS levels", "setting": "[4]", "result": "Elevated"}]}]}
